The text below walks through data of patent US20250241890A1, “1,4-DIUREAS AND 1,4-DITHIOUREAS AND USES THEREOF” (Purdue Research Foundation, priority 2024, published 2025).

In this experiment the target is T1, α-synuclein (α-syn) (Homo sapiens, UniProt P37840).
T1 construct: purchased rPeptide (Watkinsville, GA)
Nature of the experiment: Thioflavin T (ThT) fluorescence assay of α-syn fibril formation. The experiment is classed as biochemical. The settings on record: for remaining activity at 100 µM: α-syn 2 μM final concentration, compounds at 100 μM, average of three replicates with SEM, read-out: % ThT intensity (100 μM), maximum ThT intensity in percentage.

For `S=C(Nc1ccc(NC(=S)Nc2cccc3cc[nH]c23)cc1)Nc1cccc2cc[nH]c12` [Compound 8, 3-(1H-indol-7-yl)-1-(4-{[(1H-indol-7-yl)carbamothioyl]amino}phenyl)thiourea], the remaining activity at 100 µM was 41.6%.

One may read the EC50 as the midpoint of the concentration-response curve. As to `O=C(Nc1ccc(NC(=O)Nc2cccc3[nH]ccc23)cc1)Nc1cccc2[nH]ccc12` [Compound 1, 3-(1H-indol-4-yl)-1-(4-{[(1H-indol-4-yl)carbamoyl]amino}phenyl)urea], the remaining activity at 100 µM amounted to 5.3%. Also, the 50% effective concentration (EC50) (Log (agonist) vs. normalized response (variable slope), Prism, α-syn 6 μM, 47 hours, 12.5, 25, 50 and 100 μM, read-out: Log EC50 (dose response curve of α-syn fibrillation, ThT) (converted)) was 15.9 ± 2.8 µM.

For `S=C(Nc1ccc(NC(=S)Nc2cccc3[nH]ccc23)cc1)Nc1cccc2[nH]ccc12` [Compound 2, 3-(1H-indol-4-yl)-1-(4-{[(1H-indol-4-yl)carbamothioyl]amino}phenyl)thiourea], the remaining activity at 100 µM came to 15.2%. Besides, the “dose-dependent reduction of α-syn fibrillation (ThT)” value (α-syn 6 μM, 47 hours, 12.5, 25, 50 and 100 μM) was “dose-dependent reduction”.
